Results as given in BigSolDB 2.1.

N#CNC(=N)N
solubility (mole fraction) (in DMF, 278.15 K): 0.183
solubility (mole fraction) (in DMF, 283.15 K): 0.19
solubility (mole fraction) (in DMF, 288.15 K): 0.205
solubility (mole fraction) (in DMF, 293.15 K): 0.215
solubility (mole fraction) (in DMF, 298.15 K): 0.225
solubility (mole fraction) (in DMF, 303.15 K): 0.243
solubility (mole fraction) (in DMF, 308.15 K): 0.248
solubility (mole fraction) (in DMF, 313.15 K): 0.256
solubility (mole fraction) (in DMF, 318.15 K): 0.268
solubility (mole fraction) (in DMF, 323.15 K): 0.275
solubility (mole fraction) (in acetone, 278.15 K): 0.00744
solubility (mole fraction) (in acetone, 283.15 K): 0.0084
solubility (mole fraction) (in acetone, 288.15 K): 0.00923
solubility (mole fraction) (in acetone, 293.15 K): 0.0101
solubility (mole fraction) (in acetone, 298.15 K): 0.011
solubility (mole fraction) (in acetone, 303.15 K): 0.0118
solubility (mole fraction) (in acetone, 308.15 K): 0.0127
solubility (mole fraction) (in acetone, 313.15 K): 0.0136
solubility (mole fraction) (in acetone, 318.15 K): 0.0144
solubility (mole fraction) (in acetone, 323.15 K): 0.015
solubility (mole fraction) (in ethanol, 278.15 K): 0.00374
solubility (mole fraction) (in ethanol, 283.15 K): 0.00403
solubility (mole fraction) (in ethanol, 288.15 K): 0.00449
solubility (mole fraction) (in ethanol, 293.15 K): 0.00493
solubility (mole fraction) (in ethanol, 298.15 K): 0.00591
solubility (mole fraction) (in ethanol, 303.15 K): 0.00654
solubility (mole fraction) (in ethanol, 308.15 K): 0.00738
solubility (mole fraction) (in ethanol, 313.15 K): 0.00805
solubility (mole fraction) (in ethanol, 318.15 K): 0.00883
solubility (mole fraction) (in ethanol, 323.15 K): 0.0097
solubility (mole fraction) (in ethylene glycol, 278.15 K): 0.0187
solubility (mole fraction) (in ethylene glycol, 283.15 K): 0.0245
solubility (mole fraction) (in ethylene glycol, 288.15 K): 0.0289
solubility (mole fraction) (in ethylene glycol, 293.15 K): 0.0377
solubility (mole fraction) (in ethylene glycol, 298.15 K): 0.048
solubility (mole fraction) (in ethylene glycol, 303.15 K): 0.0587
solubility (mole fraction) (in ethylene glycol, 308.15 K): 0.0655
solubility (mole fraction) (in ethylene glycol, 313.15 K): 0.0805
solubility (mole fraction) (in ethylene glycol, 318.15 K): 0.0995
solubility (mole fraction) (in ethylene glycol, 323.15 K): 0.12
solubility (mole fraction) (in methanol, 278.15 K): 0.0141
solubility (mole fraction) (in methanol, 283.15 K): 0.0162
solubility (mole fraction) (in methanol, 288.15 K): 0.0193
solubility (mole fraction) (in methanol, 293.15 K): 0.021
solubility (mole fraction) (in methanol, 298.15 K): 0.0231
solubility (mole fraction) (in methanol, 303.15 K): 0.0264
solubility (mole fraction) (in methanol, 308.15 K): 0.028
solubility (mole fraction) (in methanol, 313.15 K): 0.0297
solubility (mole fraction) (in methanol, 318.15 K): 0.032
solubility (mole fraction) (in methanol, 323.15 K): 0.0347
solubility (mole fraction) (in water, 278.15 K): 0.00303
solubility (mole fraction) (in water, 283.15 K): 0.00387
solubility (mole fraction) (in water, 288.15 K): 0.00526
solubility (mole fraction) (in water, 293.15 K): 0.00707
solubility (mole fraction) (in water, 298.15 K): 0.00891
solubility (mole fraction) (in water, 303.15 K): 0.0114
solubility (mole fraction) (in water, 308.15 K): 0.0141
solubility (mole fraction) (in water, 313.15 K): 0.0172
solubility (mole fraction) (in water, 318.15 K): 0.021
solubility (mole fraction) (in water, 323.15 K): 0.0265
